The values that follow come from a melting point compilation (Tetko et al.; mined from patent text by program, amines drawn as free bases though some values may be those of a salt).

Compound `CC(C)(C)C(=O)Nc1cc(Cl)ccc1Cl` displayed a melting point of 74 to 76 °C.

Compound `CCOCC(O)(COCC)C(Cc1ccc2ccccc2c1)[N+](=O)[O-]` (configuration not stated) had a melting point of 87 °C.

As for `O=C(Nc1ccc2ccc(Cl)nc2n1)c1ccc(C(F)(F)F)cc1`, the melting point amounted to 236 °C. Then `CC(C#N)c1coc2cc(I)ccc12` (configuration not stated), with 71 to 72 °C; and `CN(C)CCCCNC(=O)Cn1ncc(-c2ccccc2)c1-c1ccccc1`, with 77 to 79 °C; and `NC(=S)NN=C(CCC(=O)N1CCCCC1)c1ccccc1`, with 181 to 183 °C. The value for `CS(=O)(=O)c1ccc(-c2cnn(-c3ccc(F)c(F)c3)c(=O)c2Oc2ccc(Br)cc2)cc1` was 196 to 199 °C; that for `Cc1cnc(NS(=O)(=O)c2cccc(Cl)c2Cl)c(OCc2ccco2)n1` was 127 to 129 °C; that for `Cn1[nH]c(=O)n(-c2cc(F)c(C(=O)Cl)cc2F)c1=O` was above 250 °C.

Regarding `CC(C)c1nc(CO)n(C)c1Sc1cc(Cl)cc(Cl)c1`, the melting point is 157 to 158 °C. `CC(=O)Nc1ccc(OCCCO[N+](=O)[O-])cc1` had a melting point of 89 to 92 °C. `CC(CCCc1ccc(F)cc1)c1cc(O)c2c(c1)OC(C)(C)c1ccncc1-2` (configuration not stated) came in with a melting point of 72 to 74 °C. The value for `CC(=O)Nc1ccc2nc(-c3cc(C)c(OCCO)c(C)c3)[nH]c(=O)c2c1` was above 300 °C; that for `CCOC(=O)C(C)Oc1ccc(Oc2nc3ccccc3cc2Cl)cc1` (configuration not stated) was 86 °C; that for `CCn1cc(-c2coc3ccc(-c4nnc(C)o4)cc23)cn1` was 122 to 123 °C.

Regarding `O=C(CC1CCCCC1)Nc1ccc2oc3c(c2c1)CCCCCC3`, the melting point fell in the range of 180 to 181 °C. For `O=C1CCCc2onc(-c3ccccc3[N+](=O)[O-])c21`, the melting point is 125 to 127 °C. Then `Cn1nc(CO)nc1NCC(O)CCOc1cccc(CN2CCCCC2)c1` (configuration not stated), with 148 °C; and `COC(=O)/C=C/c1ccc(CC(C)NCC(O)c2cccc(Br)c2)cc1` (configuration not stated), with 105 to 111 °C. In turn, `CC1(C)C(=O)N(c2ccc(C#N)c(C(F)(F)F)c2)C(=O)N1CCCCCN1C(=O)N(c2ccc(C#N)c(C(F)(F)F)c2)C(=O)C1(C)C` registered a melting point of 167 to 169 °C. The value for `O=c1c2c(OCC3CO3)cc(OCC3CO3)cc2oc2ccc3ccccc3c12` (configuration not stated) was 198 to 200 °C; that for `O=c1c2c[nH]c3c(c-2nn1-c1ccc(Cl)cc1)CSC3` was above 330 °C. The value for `C[C@H](NC(=O)c1ccccc1)C(=O)CCl` was 120 to 122 °C; that for `CS(=O)(=O)N(c1ccccc1)C1CCN(Cc2ccccc2)CC1` was 125 °C.

Take `Cc1ccc(-c2nn(-c3ccc(Br)cc3)c(N)c2C(N)=O)cc1`: the melting point is 222 to 223 °C.

Regarding `COCCn1cc(C#N)c(N)n1`, the melting point was 105 to 107 °C. Then `COc1c(Br)ccc2s[nH]c(=O)c12`, with 197 to 198 °C. The value for `CCCCCCCCCCOc1csc(-c2ccc(N)cc2)c1OCCCCCCCCCC` was 64.5 to 65.5 °C. The value for `Nc1nc2c(ncn2Cc2ccccc2)c(=O)[nH]1` was 305 to 308 °C; that for `COc1ccc(C2=NN(CCCOc3ccccc3)C(=O)[C@H]3CCCC[C@@H]23)cc1OC` (relative stereo) was 78 to 81 °C. `Cc1nc2cnc3ccccc3c2n1CC(C)O` (configuration not stated) registered a melting point of 176 to 177 °C. Then `Cc1ccccc1Oc1cccc(CC(=O)O)c1O`, with 116 to 117 °C. Compound `COC(=O)Nc1ccccc1-c1c(C(=O)OC)c2cc(OC)c(OC)cc2c(=O)n1C` yielded a melting point of 165 to 170 °C. `CC(C)NC(=O)N1CC(Oc2ccc(C(F)(F)F)cc2)C1` registered a melting point of 151 to 152 °C. `Cc1sc(C(=O)O)c2c1-c1c(cnn1CC(F)(F)F)CC2` showed a melting point of 250 to 251 °C.

The compound `O=Cc1c(O)cccc1OCCCC(=O)O` yielded a melting point of 151 to 153 °C.

`O=[N+]([O-])c1cccc(Oc2nccnc2Cl)c1` yielded a melting point of 119 to 121 °C. The value for `COc1nccc(-c2c(-c3ccc(F)cc3)ncn2C2CCC(O)(CO)CC2)n1` (configuration not stated) was 225 to 226 °C; that for `CC(Cc1ccccc1)(NC(=O)OC1CCCCc2ccccc21)C(=O)NCCCCCCCCC(N)=O` (configuration not stated) was 98 to 100 °C. Then `Cc1cccc2c1C=Cc1ccccc1C2(O)CCCN(C)C` (configuration not stated), with 141 to 143 °C; and `c1ccc(C(c2ccccc2)N2CCN(CCCn3cnc4ccccc43)CC2)cc1`, with 132 °C. `CCCn1nc2c(N)nc3ncccc3c2c1CC1CCOCC1` showed a melting point of 252 to 255 °C. In turn, `CC(=O)NCc1cc([N+](=O)[O-])ccc1C` displayed a melting point of 133 to 138 °C. Then `CC(=O)c1nc2ccc(OCC(F)(F)C(F)(F)C(F)(F)C(F)F)cc2cc1O`, with 69 to 71 °C; and `CC(C)(C)c1ccc(NC(=O)OCC2(COC(=O)Nc3ccc(C(C)(C)C)cc3)CSc3ccccc3C2=O)cc1`, with 78 to 85 °C. Then `O=C(N[C@H]1CCN(C(=O)c2cc(C(F)(F)F)cc(C(F)(F)F)c2)[C@H](Cc2ccc(Cl)cc2)C1)c1cc(=O)c2ccc(Cl)cc2o1`, with 218 to 220 °C.

For the compound `CCC(=O)Nc1ccc(Oc2cccc(OC)c2)cc1`, the melting point lay within 79 to 81 °C. As for `CCC(OC(=O)C1CC1)c1ccc(Cl)c2nc3n(c12)CCCN3c1ccc(OC)nc1C` (configuration not stated), the melting point lay in the range of 149 to 151 °C. On to `O=C(O)C1=C(SCc2ccccc2)CCC1`, for which the melting point stood at 233 °C. Then `Cc1ccc2c(n1)N(CCCN(C(C)C)C(C)C)c1ccccc1N(C)C2=O`, with 118 to 119 °C; and `CC(C)(C)OC(=O)Nc1cc(C(F)(F)F)ccc1-c1cc(Oc2ccc3cccnc3c2)ncn1`, with 159 to 162 °C.

Take `O=C(OC1CCCCC1)C(c1ccccc1)n1cnc2[nH]ncc2c1=S` (configuration not stated): the melting point lay within 170 to 173 °C. Then `NC(=O)c1snnc1C1CC1`, with 163 °C; and `O=C1CNCCN1c1ccc([N+](=O)[O-])cc1`, with 150 to 153 °C. As for `COc1cccc(CC(=O)NCc2ccccc2Cl)c1`, the melting point lay in the range of 89 to 91 °C. Then `COc1ccc(NC(=O)C(F)(F)F)cc1C12CC3CC(CC(C3)C1)C2`, with 166 to 167 °C; and `O=C(CS(=O)(=O)c1cccs1)C12CC3CC(CC(C3)C1)C2`, with 118 to 119 °C. As to `O=Cc1ccc(CO)cn1`, the melting point is 75 °C. Take `C=C1NC(NC(C)CC)=C(C(=O)OCC)C(NN)=C1C#N` (configuration not stated): the melting point lay in the range of 120 to 121 °C. Then `CCOCCOCCn1c(C=O)cc2c3c(c(-c4ccccc4Cl)cc21)C(=O)NC3=O`, with 162 to 165 °C; and `CN(C)c1cccc(-c2nc3ncccc3o2)c1`, with 208 to 209 °C.

In turn, `CC(C)c1nc(-c2ccccc2)c(C(C)C)c(-c2ccc(F)cc2)c1CO` had a melting point of 244 to 246 °C.

As for `CN1C(=O)CC[C@]2(C)c3ccc(-c4ccc(Oc5ccccc5)cc4)cc3CC[C@@H]12`, the melting point was in the range of 148 to 150 °C. The value for `CCCOC1CCC2C3CCC4=CC(=O)CCC4C3CCC12CC` (configuration not stated) was 83 to 84 °C; that for `c1cncc(C2CCCCS2)c1` (racemic) was 49 °C; that for `CC(O)c1cc(I)c(O)c(Cl)n1` (configuration not stated) was 114 to 116 °C. The value for `CN1CCCC1=NC(=O)Nc1c(Br)cc(Br)cc1Br` was 165 to 168 °C; that for `O=C(O)CC(=O)N(c1ccccc1)c1ccccc1` was 126 to 127 °C; that for `CN(c1ccc(Cl)cc1)c1nc(=O)c2ccc(-c3ccccc3)nc2s1` was 279 to 280 °C. Turning to `CCOC(=O)c1cc(=O)c2c(OCC(O)COc3ccc(C#N)cc3)cccc2o1` (configuration not stated), the melting point lay within 137 to 139 °C. In turn, `CCOC(=O)c1cc2c(s1)CCC2=O` displayed a melting point of 54 to 55 °C. Regarding `Nc1cc(Br)cnc1CCCCNC1=NS(=O)N=C1NCc1ccncc1` (configuration not stated), the melting point lay within 63 to 66 °C. As for `COc1ccc(S(=O)(=O)NCc2ccccc2)c2c1oc1ccccc12`, the melting point fell in the range of 180 to 185 °C. Then `Cc1ccc(Cc2cnc(NCCCCNc3ccc(Cl)cn3)[nH]c2=O)cn1`, with 214 to 215 °C; and `CC(=O)OCC(=O)C1(OC(C)=O)C(C)CC2C3CC(C)C4=CC(=O)CCC4(C)C3(F)C(O)CC21C` (configuration not stated), with 194 to 195 °C.

On to `COC(=O)CC1C(=O)Nc2cc(S(N)(=O)=O)sc2S1(=O)=O` (configuration not stated), for which the melting point is 223 to 225 °C. Then `CN(C)C1CCC(Nc2nc3cc(Cl)c(Cl)cc3nc2-c2cccnc2)CC1` (configuration not stated), with 158 to 161 °C; and `COc1ccc2c(Cc3c(Cl)cncc3Cl)nnc(N3CCN(C)CC3)c2c1`, with 160 to 162 °C. `Sc1nc2cc(N3CCNCC3)ccc2[nH]1` showed a melting point of 260 to 261 °C. Compound `COc1ccccc1-c1cccc(C#N)c1` returned a melting point of 58 °C. For `COc1cc(Nc2c(C#N)cnc3cc4cc(OC)c(OCCN5CCC(O)CC5)cc4cc23)c(Cl)cc1C`, the melting point was in the range of 205 to 235 °C. On to `COC(=O)c1ccc(/C=C/c2nc(-c3ccccc3)oc2C)cc1`, for which the melting point was in the range of 164 to 165 °C. `Cc1ccccc1-c1nn(C(C)(C)C(=O)N(C)C)cc1Cl`: the melting point was in the range of 134 to 136 °C. The compound `O=C(NCCc1c[nH]c2ccccc12)C1CCCCC1` yielded a melting point of 98 to 99 °C. Then `C#CCN(C)C(=O)N1CC(Oc2cccc(C(F)(F)F)c2)C1`, with 71 to 73 °C.

In turn, `C=CCNC(=O)Nc1nn(Cc2ccccc2)cc1C(=O)OCC` registered a melting point of 77 to 78 °C. Then `O=C(O)CN(C(=O)CCCCl)c1csc2ccccc12`, with 167 to 168 °C.

`Cc1ccc(-c2ccccc2)c(O)c1-c1ccccc1`: the melting point was in the range of 279 to 280 °C. `NCC(c1ccc(Cl)cc1)C1CCCCCC1O` (mixture of isomers) registered a melting point of 92 to 93 °C. Turning to `CSc1ccc(-c2cncn2-c2ccc(S(C)(=O)=O)cc2)cc1`, the melting point lay within 153 to 155 °C.

With `CC(C)n1nc(-c2c(-c3ccccc3)nn3ccc(OCCc4ccccc4)cc23)ccc1=O`, the melting point was in the range of 154 to 156 °C. `CNNc1ccc(-c2ccc3c(=O)c(C(=O)O)cn(C4CC4)c3c2C)cn1` yielded a melting point of 246 °C.

The term melting point denotes the temperature, or range, at which the solid turns liquid.
